The source of these data is US10196417B2, “Baicalin magnesium compound and its preparation method and application” (CHENGDE MEDICAL UNIVERSITY, priority 2016, dated 2019).

The subject of data set [1] is Human liver cancer HepG2 cells. Nature of the data set: Anti-tumor activity: apoptosis of HepG2 cells by flow cytometry. In kind it is cell-based. As to conditions: 48 hours. As to the method:
Human liver cancer HepG2 cells were prepared and then cultured in an incubator containing 5% of CO2 at 37° C. using a DMEN culture medium containing 10% of fetal bovine serum, penicillin (100 μmol·L^−1) and streptomycin (1 mg·mL^−1). HepG2 cells in logarithmic phase were diluted with RPMI-1640 culture medium containing 10% of fetal bovine serum to a concentration of 1×10^4 per mL; then inoculated into a 96-well plate at 100 μL per well; and then cultured in an incubator having a relative humidity of 90% and 5% of CO2 at 37° C. The culture medium was discarded after the HepG2 cells were cultured for 24 hours. The culture medium containing baicalin and baicalin magnesium (equivalent to the concentration of baicalin (5 μg/mL, 10 μg/mL and 20 μg/mL)) were added in wells respectively with each concentration in four parallel wells. And at the same time, wells having culture medium without cells were used as a blank control group, and wells having cells without drug were used as a negative control group. The groups were continuously cultured for 48 hours to collect the cells. The cells were washed with PBS solution 2 times, and detected with a flow cytometer by FACS for parameter acquisition and data analysis.

Data set [2] deals with mice with acute liver injury induced by D-galactose. The data set can be described thus: Protection against liver injury (D-galactose-induced acute liver injury). In kind it is in vivo. To be noted: intragastric, 10 mg/kg baicalin or equivalent, 5 days, D-galactose 0.5 g/kg i.p. on day 4. As to the method:
40 healthy mice were randomly divided into 4 groups, a normal group, a model group, a baicalin group and a baicalin magnesium group. Mice in the baicalin group were administrated with baicalin at a dose of 10 mg/kg, and mice in the baicalin magnesium group were administrated with baicalin magnesium at a dose equivalent to 10 mg/kg of baicalin. Mice in the normal group and the model group were intragastrically administrated with the same volume of normal saline for 5 days. On the fourth day, mice in the model group and the administration groups were intraperitoneally injected with 0.5 g/kg of D-galactose, and mice in the normal group were intraperitoneally injected with the same volume of normal saline. The activities of ALT, AST, SOD and GSH-Px in the serum and the content of MDA were detected. Variance analysis was performed by SPSS-19.0 statistical software.

For data set [3], the system named is yeast-induced febrile rats. Nature of the data set: Antipyretic effect in yeast-induced febrile rats. Type of data set: in vivo, SD male rats. To be noted: for ΔT comparing the baicalin magnesium with the baicalin: difference between groups; for Body temperature change ΔT: intragastric 80 mg/kg baicalin or equivalent. The protocol:
SD male rats were randomly divided into 4 groups, a control group, a model group, a baicalin group and a baicalin magnesium group. Rats were raised in a normal day/night cycle and at room temperature (22±2° C.) and a relative humidity of (50±2)%. Three days before the test, rats were placed in the experimental environment to adapt to the experimental conditions. Rats having a basal body temperature of 37.5-39.0° C. were selected for test The rats were fasted for 12 hours before the test, and the body temperature of rats was measured once every 1 hour when tested. Average of three body temperature values (the temperature values would be removed if a difference between the highest value and the lowest value was greater than 0.5° C.) of rats was used as the basal body temperature.
The rats were intragastrically administrated with baicalin or baicalin magnesium, and then immediately subcutaneously injected with 20% of dried yeast saline suspension (not for the control group). The administration mode was as follows: rats in the control group were intragastrically administrated with 2 ml/kg of normal saline and subcutaneously injected with 10 ml/kg of normal saline; rats in the model group were ntragastrically administrated 2 ml/kg of normal saline and subcutaneously injected with 2 g/kg of yeast; rats in the baicalin group were intragastrically administrated with 80 mg/kg of baicalin and subcutaneously injected with 2 g/kg of yeast; and rats in the baicalin magnesium group were intragastrically administrated with baicalin magnesium (equivalent to 80 mg/kg of baicalin) and subcutaneously injected with 2 g/kg of yeast. The body temperature of the rats was measured once every 2 hours for 14 hours to observe the temperature change of rats (ΔT, ° C.) at different time after injection of the yeast.

Data set [4] is described as follows: Pharmacokinetic experiments (no data given). Type of data set: in vivo. As to conditions: in words only.
The mark [5] stands for this setting: HepG2, 5 μg/mL (baicalin equivalent).
[6] abbreviates: HepG2, 10 μg/mL (baicalin equivalent).
Setting [7] is: HepG2, 20 μg/mL (baicalin equivalent).

Marks after values point to notes of the source that are not given here.

Regarding `O=C(O)C1O[C@@H](Oc2cc3oc(-c4ccccc4)cc(=O)c3c(O)c2O)C(O)[C@@H](O)[C@@H]1O` (some centres unmarked) [Baicalin Magnesium, baicalin magnesium], the Apoptosis % in data set [1] (setting [5]) came out at 11.67 ± 0.65 %. In addition, the Apoptosis % in data set [1] (setting [6]) worked out at 23.67 ± 5.21 %. In addition, the Apoptosis % in data set [1] (setting [7]) is given as 33.12 ± 1.58*^Δ %. In addition, in data set [2], the “ALT (serum)” value is listed as 165.1 ± 8.7*^Δ U/L, the “AST (serum)” value is reported as 139.8 ± 13.7*^Δ U/L, the “GSH-Px (serum)” value is given as 11.8 ± 0.5*^Δ U/L and the “MDA (serum)” value is 2.1 ± 0.3*^Δ nmol/L. The “SOD (serum)” value in data set [2] stood at 48.2 ± 2.9 U/L. In addition, the “ΔT comparing the baicalin magnesium with the baicalin” value in data set [3] (6 h) worked out at 0.2 °C. For the same compound, the “Body temperature change ΔT” value in data set [3] (6 h after yeast 2 g/kg s.c.) stood at 0.2 °C. Further, the “ΔT comparing the baicalin magnesium with the baicalin” value in data set [3] (8 h) came out at 0.5 °C. Moreover, the “Body temperature change ΔT” value in data set [3] (8 h after yeast 2 g/kg s.c.) was 0.3 °C. Further, the “Adsorption rate compared to baicalin” value in data set [4] is “faster adsorption rate”.

Regarding `O=C(O)[C@H]1O[C@@H](Oc2cc3oc(-c4ccccc4)cc(=O)c3c(O)c2O)[C@H](O)[C@@H](O)[C@@H]1O` [Baicalin], the Apoptosis % in data set [1] (setting [5]) came out at 9.57 ± 0.56 %. In addition, the Apoptosis % in data set [1] (setting [6]) was 21.45 ± 1.67 %. For the same compound, the Apoptosis % in data set [1] (setting [7]) is on record as 30.67 ± 3.45 %. Also, in data set [2], the “ALT (serum)” value is reported as 191.4 ± 19.4 U/L, the “AST (serum)” value is reported as 168.5 ± 11.9 U/L, the “GSH-Px (serum)” value turned out to be 9.8 ± 0.9 U/L and the “MDA (serum)” value was determined as 3.1 ± 0.4 nmol/L. Also, the “SOD (serum)” value in data set [2] is on record as 45.2 ± 2.9 U/L. Also, the “Body temperature change ΔT” value in data set [3] (6 h after yeast 2 g/kg s.c.) stood at 0.4 °C. Also, the “Body temperature change ΔT” value in data set [3] (8 h after yeast 2 g/kg s.c.) came to 0.8 °C.
